In patent US20250296929A1, “NOVEL HEPATOSELECTIVE POLYADENYLATING POLYMERASES INHIBITORS AND THEIR METHOD OF USE” (BARUCH S. BLUMBERG INSTITUTE, priority 2021, published 2025):
“And” between values parts separate entries of the source, which are not always exact repeats. Identical values can stand only once. Like-named read-outs stand apart in the source and are kept apart here.

How the values were obtained:
[1] = Pharmacokinetics after 3 mg/kg IV administration, plasma; format: in vivo, CD1 mice
Procedure: (§1) Protocol for pharmacokinetic and tissue distribution studies. The pharmacokinetics of the compounds was studied in CD1 mice after intravenous (IV) and oral gavage (PO) administration. Mouse PK studies was conducted at 3 mg/kg (IV) and 8 mg/kg (PO). Plasma samples obtained from dosed animals, at ten time points, including 5, 15 and 30 minutes and 1, 1.5, 2, 4, 6, 8 and 24 hr post-dose for processing to plasma, were prepared for analysis by means of a single step protein precipitation technique, by adding 200 μL of acetonitrile containing an IS mixture (labetalol, imipramine and diclofenac) to 50 μL aliquots of individual subject samples. Samples were mixed by vortex for homogeneity and then subjected to centrifugation at 4000 rpm for 10 min. The supernatant (200 μL) was collected and injected into the LC-MS/MS for analysis. Pharmacokinetic parameters will be calculated using established non-compartmental methods. The liver distribution of the compounds was studied in the PO group and liver tissues were collected at each time point after PO administration. Accurately weighed whole liver tissues were collected in a 50 mL tube, and 3 volumes per weight of water will be added. Tissue samples were homogenized and 50 μL of the homogenates will be processed along with plasma samples as described above.

[2] = Pharmacokinetics after 8 mg/kg oral (PO) administration, plasma; format: in vivo, CD1 mice; parameters: AUClast/D: unit not given here
Procedure: as §1

OATP1B1 = biological target: T1, OATP1B1 (Homo sapiens, UniProt Q9Y6L6); assay: OATP1B1 transporter substrate uptake in OATP1B1-HEK293 cells; format: in vitro ADME; conditions: test concentration 1 μM
T1 construct: expressed in transfected cells; host or cells: HEK293
T1 sequence (Q9Y6L6 1-691): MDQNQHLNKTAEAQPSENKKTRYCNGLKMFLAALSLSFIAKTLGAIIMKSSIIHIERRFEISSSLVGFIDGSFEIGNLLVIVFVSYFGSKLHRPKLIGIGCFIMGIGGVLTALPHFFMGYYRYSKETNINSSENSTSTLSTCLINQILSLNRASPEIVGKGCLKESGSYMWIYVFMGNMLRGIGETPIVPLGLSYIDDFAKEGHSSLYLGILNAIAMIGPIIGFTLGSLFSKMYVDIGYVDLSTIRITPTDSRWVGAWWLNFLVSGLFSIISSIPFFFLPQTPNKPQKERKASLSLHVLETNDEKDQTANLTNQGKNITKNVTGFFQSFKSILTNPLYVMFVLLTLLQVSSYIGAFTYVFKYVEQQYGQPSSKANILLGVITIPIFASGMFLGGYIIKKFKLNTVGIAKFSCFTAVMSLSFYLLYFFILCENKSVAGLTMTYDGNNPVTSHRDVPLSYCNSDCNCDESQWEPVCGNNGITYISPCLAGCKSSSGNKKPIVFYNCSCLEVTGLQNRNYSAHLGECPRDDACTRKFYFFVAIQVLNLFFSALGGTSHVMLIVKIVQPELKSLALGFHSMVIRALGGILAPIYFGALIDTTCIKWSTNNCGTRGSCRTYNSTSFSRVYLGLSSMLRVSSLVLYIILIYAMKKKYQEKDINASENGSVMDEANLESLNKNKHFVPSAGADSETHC

[3] = CD1, mouse, plasma, iv, 3 mg/kg, individual mice
[4] = CD1, mouse, plasma, iv, 3 mg/kg, mean
[5] = CD1, mouse, plasma, 8 mg/kg oral, mean

## COc1cc2c(cc1OCCCCCCC(=O)O)C[C@@H](C(C)C)n1cc(C(=O)O)c(=O)cc1-2 [Example 6, (S)-9-((6-carboxyhexyl)oxy)-6-isopropyl-10-methoxy-2-oxo-6,7-dihydro-2H-pyrido[2,1-a]isoquinoline-3-carboxylic acid]
[1]; 5 min, individual mice
  Plasma concentration: 979 ng/mL and 689 ng/mL
[1]; 0.25 h, individual mice
  Plasma concentration: 103 ng/mL and 73.0 ng/mL
[1]; 0.5 h, individual mice
  Plasma concentration: 31.7 ng/mL and 24.9 ng/mL
[1]; 1 h, individual mice
  Plasma concentration: 8.52 ng/mL and 6.79 ng/mL
[1]; 2 h, individual mice
  Plasma concentration: 5.61 ng/mL and 5.51 ng/mL and 2.14 ng/mL
[1]; 4 h, individual mice
  Plasma concentration: 1.69 ng/mL and BLOQ
[1]; 8 h, individual mice
  Plasma concentration: BLOQ
[1]; 24 h, individual mice
  Plasma concentration: BLOQ
[1]; CD1, mouse, plasma, intravenous, 3 mg/kg, 5 min, individual mice, read-out: Plasma concentration
  concentration at 5 min: 817 ng/mL
[1]; CD1, mouse, plasma, intravenous, 3 mg/kg, 5 min, mean, read-out: Mean plasma concentration
  concentration at 5 min: 828 ng/mL
[1]; CD1, mouse, plasma, intravenous, 3 mg/kg, 0.25 h, individual mice, read-out: Plasma concentration
  concentration at 0.25 h: 82.3 ng/mL
[1]; CD1, mouse, plasma, intravenous, 3 mg/kg, 0.25 h, mean, read-out: Mean plasma concentration
  concentration at 0.25 h: 86 ng/mL
[1]; CD1, mouse, plasma, intravenous, 3 mg/kg, 0.5 h, individual mice, read-out: Plasma concentration
  concentration at 0.5 h: 32.8 ng/mL
[1]; CD1, mouse, plasma, intravenous, 3 mg/kg, 0.5 h, mean, read-out: Mean plasma concentration
  concentration at 0.5 h: 29.8 ng/mL
[1]; CD1, mouse, plasma, intravenous, 3 mg/kg, 1 h, individual mice, read-out: Plasma concentration
  concentration at 1 h: 11.4 ng/mL
[1]; CD1, mouse, plasma, intravenous, 3 mg/kg, 1 h, mean, read-out: Mean plasma concentration
  concentration at 1 h: 8.9 ng/mL
[1]; CD1, mouse, plasma, intravenous, 3 mg/kg, 2 h, mean
  concentration at 2 h: 4.42 ng/mL
[1]; CD1, mouse, plasma, intravenous, 3 mg/kg, 4 h, individual mice, read-out: Plasma concentration
  concentration at 4 h: 1.85 ng/mL
[1]; CD1, mouse, plasma, intravenous, 3 mg/kg, 4 h, mean, read-out: Mean plasma concentration
  concentration at 4 h: 1.77 ng/mL
[1]; CD1, mouse, plasma, intravenous, 3 mg/kg, 8 h, individual mice
  concentration at 8 h: 1.08 ng/mL
[1]; [3]
  AUC(0-inf): 268 ng·h/mL
  AUC(0-t): 263 ng·h/mL
[1]; CD1, mouse, plasma, iv, 3 mg/kg, individual mice, read-out: C0
  C0: 2570 ng/mL
[1]; [4]
  AUC(0-inf): 258 ng·h/mL
  AUC(0-t): 255 ng·h/mL
  half-life: 88.8 min
[1]; CD1, mouse, plasma, iv, 3 mg/kg, mean, read-out: C0
  C0: 2570 ng/mL
[1]; CD1, mouse, plasma, iv, 3 mg/kg, mean, read-out: MRTInf —obs
  MRT inf: 17.2 min
[1]; CD1, mouse, plasma, iv, 3 mg/kg, mean, read-out: Vss —obs
  Vd: 3.26 L/kg
[1]; individual mice
  AUCInf: 301 ng·h/mL and 206 ng·h/mL
  AUClast: 298 ng·h/mL and 205 ng·h/mL
  AUC—% Extrap_obs: 1.59% and 1.03% and 0.662%
  C0: 3016 ng/mL and 2115 ng/mL
  Cl_obs: 187 mL/min/kg and 166 mL/min/kg and 242 mL/min/kg
  MRTInf —obs: 30.1 min and 13.8 min and 7.68 min
  T1/2: 163 min and 76.2 min and 26.5 min
  Vss —obs: 5.63 L/kg and 2.29 L/kg and 1.87 L/kg
[1]; mean
  AUClast/D: 85.1 kg·ng·h/mL/mg
  AUC—% Extrap_obs: 1.09%
  Cl_obs: 198 mL/min/kg
[2]; 8 mg/kg oral vs 3 mg/kg IV, mean
  F: 5.09%
[2]; 8 mg/kg oral, 0.25 h, individual animals
  Plasma concentration: 10.3 ng/mL and 19.5 ng/mL and 18.4 ng/mL
[2]; 8 mg/kg oral, 0.5 h, individual animals
  Plasma concentration: 9.93 ng/mL and 9.00 ng/mL and 9.40 ng/mL
[2]; 8 mg/kg oral, 1 h, individual animals
  Plasma concentration: 4.10 ng/mL and 5.94 ng/mL and 9.27 ng/mL
[2]; 8 mg/kg oral, 2 h, individual animals
  Plasma concentration: 5.41 ng/mL and 4.55 ng/mL and 2.29 ng/mL
[2]; 8 mg/kg oral, 4 h, individual animals
  Plasma concentration: 3.03 ng/mL and 4.12 ng/mL and 3.68 ng/mL
[2]; 8 mg/kg oral, 6 h, individual animals
  Plasma concentration: 1.53 ng/mL and 2.42 ng/mL and 2.85 ng/mL
[2]; 8 mg/kg oral, 8 h, individual animals
  Plasma concentration: 6.65 ng/mL and 2.11 ng/mL and BLOQ
[2]; 8 mg/kg oral, 24 h, individual animals
  Plasma concentration: BLOQ
[2]; 8 mg/kg oral, mean
  AUClast/D: 4.33
[2]; CD1, mouse, plasma, oral, 8 mg/kg, 8 mg/kg oral, 0.25 h, individual animals, read-out: Plasma concentration
  concentration at 0.25 h: 18.4 ng/mL
[2]; CD1, mouse, plasma, oral, 8 mg/kg, 8 mg/kg oral, 0.25 h, mean, read-out: Mean plasma concentration
  concentration at 0.25 h: 16.1 ng/mL
[2]; CD1, mouse, plasma, oral, 8 mg/kg, 8 mg/kg oral, 0.5 h, individual animals, read-out: Plasma concentration
  concentration at 0.5 h: 9.4 ng/mL
[2]; CD1, mouse, plasma, oral, 8 mg/kg, 8 mg/kg oral, 0.5 h, mean, read-out: Mean plasma concentration
  concentration at 0.5 h: 9.44 ng/mL
[2]; CD1, mouse, plasma, oral, 8 mg/kg, 8 mg/kg oral, 1 h, mean
  concentration at 1 h: 6.44 ng/mL
[2]; CD1, mouse, plasma, oral, 8 mg/kg, 8 mg/kg oral, 2 h, mean
  concentration at 2 h: 4.08 ng/mL
[2]; CD1, mouse, plasma, oral, 8 mg/kg, 8 mg/kg oral, 4 h, individual animals, read-out: Plasma concentration
  concentration at 4 h: 3.68 ng/mL
[2]; CD1, mouse, plasma, oral, 8 mg/kg, 8 mg/kg oral, 4 h, mean, read-out: Mean plasma concentration
  concentration at 4 h: 3.61 ng/mL
[2]; CD1, mouse, plasma, oral, 8 mg/kg, 8 mg/kg oral, 6 h, individual animals, read-out: Plasma concentration
  concentration at 6 h: 2.85 ng/mL
[2]; CD1, mouse, plasma, oral, 8 mg/kg, 8 mg/kg oral, 6 h, mean, read-out: Mean plasma concentration
  concentration at 6 h: 2.27 ng/mL
[2]; CD1, mouse, plasma, oral, 8 mg/kg, 8 mg/kg oral, 8 h, mean
  concentration at 8 h: 4.38 ng/mL
[2]; [5]
  AUC(0-t): 34.7 ng·h/mL
  Cmax: 16.1 ng/mL
  Tmax: 15 min
OATP1B1; OATP1B1-HEK293 cells, inhibitor Rifamycin SV
  Uptake Ratio (−/+Inhibitor): 11.17
OATP1B1; OATP1B1-HEK293 vs Mock (normal HEK293)
  Uptake Ratio (Transporter(−Inhibitor)/Mock(−Inhibitor)): 18.99
